Assay results published in the CheMixHub viscosity set.

Assay: xn = mol fraction of the nth substance listed

Cc1ccc(O)cc1 + C1CCCCC1
viscosity [mPa·s]
Conditions	101 kPa	101.33 kPa
303.15 K, x2 = 0.1014	7.352	7.352
303.15 K, x2 = 0.1683	5.44	5.44
303.15 K, x2 = 0.3021	4.004	4.004
303.15 K, x2 = 0.3949	2.988	2.988
303.15 K, x2 = 0.5007	2.25	2.25
303.15 K, x2 = 0.6007	1.732	1.732
303.15 K, x2 = 0.7004	1.35	1.35
303.15 K, x2 = 0.7973	1.11	1.1
303.15 K, x2 = 0.8999	0.909	0.909
308.15 K, x1 = 0.0725	0.8571	–
308.15 K, x1 = 0.2007	1.086	–
308.15 K, x1 = 0.3167	1.393	–
308.15 K, x1 = 0.3977	1.673	–
308.15 K, x1 = 0.5218	2.252	–
308.15 K, x1 = 0.6527	3.175	–
308.15 K, x1 = 0.7637	4.421	–
308.15 K, x1 = 0.8681	6.119	–
308.15 K, x1 = 0.9441	7.786	–

Cc1cccc(C)c1 + C1CCCCC1
101 kPa
Conditions	viscosity [mPa·s]
303 K, x1 = 0.1017	0.7217
303 K, x1 = 0.2009	0.6601
303 K, x1 = 0.3085	0.6191
303 K, x1 = 0.4005	0.5943
303 K, x1 = 0.503	0.5759
303 K, x1 = 0.5848	0.5648
303 K, x1 = 0.7009	0.552
303 K, x1 = 0.8041	0.5484
303 K, x1 = 0.9025	0.5445
308.15 K, x2 = 0.0628	0.516
308.15 K, x2 = 0.1619	0.5217
308.15 K, x2 = 0.2398	0.522
308.15 K, x2 = 0.3421	0.5304
308.15 K, x2 = 0.4497	0.5417
308.15 K, x2 = 0.5501	0.5626
308.15 K, x2 = 0.6692	0.587
308.15 K, x2 = 0.7673	0.6144
308.15 K, x2 = 0.8649	0.6595
308.15 K, x2 = 0.9489	0.7148
313 K, x1 = 0.1017	0.6251
313 K, x1 = 0.2009	0.5799
313 K, x1 = 0.3085	0.548
313 K, x1 = 0.4005	0.5296
313 K, x1 = 0.503	0.5178
313 K, x1 = 0.5848	0.508
313 K, x1 = 0.7009	0.5009
313 K, x1 = 0.8041	0.493
313 K, x1 = 0.9025	0.492
313.15 K, x2 = 0.0628	0.4892
313.15 K, x2 = 0.1619	0.4949
313.15 K, x2 = 0.2398	0.4963
313.15 K, x2 = 0.3421	0.5022
313.15 K, x2 = 0.4497	0.5152
313.15 K, x2 = 0.5501	0.5304
313.15 K, x2 = 0.6692	0.5548
313.15 K, x2 = 0.7673	0.5837
313.15 K, x2 = 0.8649	0.6213
313.15 K, x2 = 0.9489	0.6685
323 K, x1 = 0.1017	0.5481
323 K, x1 = 0.2009	0.5125
323 K, x1 = 0.3085	0.4884
323 K, x1 = 0.4005	0.4736
323 K, x1 = 0.503	0.4625
323 K, x1 = 0.5848	0.4562
323 K, x1 = 0.7009	0.45
323 K, x1 = 0.8041	0.4466
323 K, x1 = 0.9025	0.4461

O=S(=O)(Cl)Cl + C1CCCCC1
298.15 K, 101 kPa
Conditions	viscosity [mPa·s]
x1 = 0.321	0.7303
x1 = 0.647	0.677
x1 = 0.797	0.6695

O=S1(=O)CCCC1 + C1CCOC1
viscosity [mPa·s], 101 kPa
Conditions	303.15 K	308.15 K	313.15 K	318.15 K	323.15 K
x2 = 0.268	3.74	2.9	3.41	2.93	2.68
x2 = 0.541	1.53	1.46	1.34	1.26	1.18
x2 = 0.772	0.77	0.74	0.72	0.7	0.68

Cc1ccc(O)cc1 + C1COCCO1
viscosity [mPa·s], 101 kPa
Conditions	303.15 K	308.15 K	313.15 K	318.15 K
x1 = 0.0835	1.335	1.184	1.097	0.9967
x1 = 0.1701	1.476	1.319	1.201	1.106
x1 = 0.26	1.752	1.563	1.422	1.289
x1 = 0.3534	2.165	1.887	1.71	1.542
x1 = 0.4504	2.798	2.473	2.175	1.964
x1 = 0.5515	3.65	3.108	2.733	2.409
x1 = 0.6567	4.783	4.09	3.524	–
x1 = 0.7663	6.413	5.276	4.492	3.804
x1 = 0.8807	8.261	5.704	5.704	4.834
x2 = 0.1	–	6.901	–	–
x2 = 0.2	–	5.697	–	–
x2 = 0.3	–	4.498	–	–
x2 = 0.4	–	3.461	–	–
x2 = 0.5	–	2.724	–	–
x2 = 0.6	–	2.14	–	–
x2 = 0.7	–	1.705	–	–
x2 = 0.8	–	1.401	–	–
x2 = 0.9	–	1.142	–	–
